Tested on: dendritic spine density in the PFC
Experiment: In vivo spinogenesis (electron microscopy)
Design: species or system C57BL/6J mice
Settings: single dose 1 mg/kg, 24 h after administration, 3 animals per group
Description: In Vivo Spinogenesis. Female C57BL/6J mice (Jackson Laboratory, Sacramento, C.A.) were treated with VEH (saline) or (+)-JRT (n=3/group). After 24 h, the animals were sacrificed via transcardial perfusion with oxygenated Ringer's solution followed by a fixative (2% paraformaldehyde, 2.5% glutaraldehyde, 3 mM calcium chloride in 0.1 M cacodylate buffer). Brains were carefully removed from the skull and post-fixed overnight in the same fixative. Brains were then rinsed with PBS and 100 μm coronal sections spanning the prefrontal cortex were collected using a vibrating microtome (Leica). Regions of the infralimbic cortex were microdissected according to the Allen brain atlas and processed further for electron microscopy. Briefly, samples were stained with buffered 1.5% reduced osmium tetroxide for 45 minutes, rinsed thoroughly, further stained with 1% aqueous uranyl acetate overnight at 4° C., dehydrated and embedded in Eponate 12 epoxy resin. A blockface that spanned from the medial cortical surface to the corpus collosum was trimmed and 150-250 serial ultrathin sections (55 nm) were collected onto silicon chips using diamond knives (Diatome) on an ultramicrotome (Leica). Serial sections on silicon chips were loaded into the scanning electron microscope (SEM; Zeiss Sigma VP) for imaging. […] Dendritic spine densities (spines/micron) were calculated for each volume.

CCN(CC)C(=O)[C@@H]1C=C2c3cccc4ccn(c34)C[C@H]2N(C)C1 [(+)-JRT]
dendritic spine density in the PFC: increases dendritic spine density

Source: patent US12637464B2, “Tetracyclic compounds for treating brain disorders” (The Regents of the University of California, priority 2021, dated 2026)
